Test results as given in article PMC10821118, “Gallium-68-Labeled KISS1-54 Peptide for Mapping KISS1 Receptor via PET: Initial Evaluation in Human Tumor Cell Lines and in Tumor-Bearing Mice” (Pharmaceuticals, 2023).
Ends that are not written are not given here.

Legend:
KISS1R in HCT116 cells = assay: KISS1R expression by immunofluorescence after Decitabine pre-incubation; assay type: cell-based, human; conditions: HCT116 pre-incubated 72 h with 5 µM Decitabine versus untreated
Description: Cells were seeded in 24-well plates on microscope cover glasses (VWR, Ismaning, Germany). After fixation/permeabilization, cells were incubated overnight with anti-KISS1R antibody (abcam, Berlin, Germany) or without primary antibody (negative control) and then stained with Alexa-Fluor®-488 conjugated secondary antibody (abcam, Berlin, Germany). The nucleus was counterstained with 4′,6-Diamidin-2-phenylindol (DAPI) (Sigma-Aldrich, Deisenhofen, Germany). Fluorescence images were taken on an Axio Scope.A1 fluorescence microscope equipped with a camera and the ZEN2 (blue edition)-Software, version 2.0.0.0 (Zeiss, Jena, Germany). Fluorescence canals were merged using the software FIJI (Image J, version 1.53t).
Cells were seeded in 24-well plates, and 1 h before [^68Ga]KISS1-54 uptake, the cell culture medium was replaced by PBS/5% BSA. Cells were incubated at 37 °C with [^68Ga]KISS1-54 for 5–90 min or co-incubated for 60 min with [^68Ga]KISS1-54 and KISS1-54 (Sigma Aldrich, Deisenhofen, Germany). After incubation, cells were washed three times with ice-cold PBS/5% BSA and harvested. Radioactivity was measured with a gamma-counter (Wizard 2480, Perkin-Elmer, Rodgau, Germany), and cells were subsequently counted with Countess 3 (Thermo Fisher Scientific, Waltham, MA, USA). […]

LNCap tumor xenograft = assay type: in vivo, CD1 nu/nu mice
Description: (§1) The animal studies were conducted according to the principles and procedures outlined in the Guide for the Care and Use of Laboratory Animals and were in line with the Animal Welfare Act and the directive 2010/63/EU. All mice (CD1-Foxn1nu) were purchased from Charles River (Sulzfeld, Germany) and held in the animal facility of the University Hospital of Würzburg. After their arrival, they had at least a week to get used to their new environment in the animal facility.
(§2) Then, 5 × 10^6 MDA-MB-231-cells in PBS and 5 × 10^6 LNCap cells in Matrigel Matrix® without phenol-red (Corning Life Sciences B.V., Amsterdam, The Netherlands), respectively, were inoculated subcutaneously into the front flank of eight-week-old mice. After implantation, the animals were examined and monitored daily for tumor size and well-being.
(§3) After the tumor reached a size of ≥0.5 cm in diameter, micro-PET scans were started.
(§4) For tracer injection, and during the micro-PET scans, mice were kept under 1.5% isoflurane anesthesia in 100% oxygen. Body temperature was maintained at a physiological level by using heating pads throughout the whole examination period.
(§5) Then, 3.0 ± 0.9 MBq of freshly prepared [^68Ga]KISS1-54 was injected intravenously (i.v.) into the tail vein. The first animals were scanned over 80 min directly after tracer injection to find out the optimal time point for PET acquisition. […] Therefore, data acquisition for all further mice started 60 min p.i. over 20 min.
(§6) Each acquired set of data was sorted with Fourier rebinning (FORE) to a 2D dataset of sinograms, which were reconstructed with the OSEM2D reconstruction algorithm. The software AMIDE Medical Image Data Examiner (Version 1.0.4) was used to quantify the radioactivity uptake in various regions of interest (ROIs). For the semi-quantitative analysis of the PET images, spherical ROIs were defined and used. For quantification, tumor-to-muscle, tumor-to-liver, and tumor-to-lung ratios (maximal tumor uptake/mean organ uptake) were calculated.

[1] = system: MDA-MB-231 tumor xenograft; assay type: in vivo, CD1 nu/nu mice
Description: as §1, §2, §3, §4, §5, §6

[2] = assay type: in vitro ADME, human
Description: For the determination of the […] stability, [^68Ga]KISS1-54 was incubated in fresh human serum at 37 °C for 3 h. After 0.5 h, 1 h, 2 h, and 3 h, adequate samples were taken, purified, and analyzed via HPLC under the conditions described above. […] The measured radioactivity (counts per minute) for each fraction was plotted versus time in a graph.

LNCap cells = assay: In vitro cell uptake, LNCap; assay type: cell-based, human; conditions: 60 min co-incubation with nonradioactive KISS1-54, 1,000-fold, p = 0.047
Description: (§7) Cells were seeded in 24-well plates, and 1 h before [^68Ga]KISS1-54 uptake, the cell culture medium was replaced by PBS/5% BSA. Cells were incubated at 37 °C with [^68Ga]KISS1-54 for 5–90 min or co-incubated for 60 min with [^68Ga]KISS1-54 and KISS1-54 (Sigma Aldrich, Deisenhofen, Germany). After incubation, cells were washed three times with ice-cold PBS/5% BSA and harvested. Radioactivity was measured with a gamma-counter (Wizard 2480, Perkin-Elmer, Rodgau, Germany), and cells were subsequently counted with Countess 3 (Thermo Fisher Scientific, Waltham, MA, USA). In the case of treatment with 5-Aza-2′-Deoxycytidine (Decitabine (DC)), cells were preincubated for 72 h in cell culture medium containing 5 µM Decitabine (Merck Millipore, Darmstadt, Germany). For data analysis, the determined accumulation of [^68Ga]KISS1-54 in vitro was standardized as “uptake/100,000 cells” for a better comparison. For example, the cell number differed between pretreatment with and without Decitabine, which is due to the treatment itself, making standardization necessary.

SK-BR-3 cells = assay: In vitro cell uptake, SK-BR-3; assay type: cell-based, human; conditions: 60 min co-incubation with nonradioactive KISS1-54, 1,000-fold, p = 0.02
Description: as §7

HeLa cells = assay: In vitro cell uptake, HeLa; assay type: cell-based, human; conditions: 60 min co-incubation with nonradioactive KISS1-54, 1,000-fold, p < 0.001
Description: as §7

MDA-MB-231 cells = assay: In vitro cell uptake, MDA-MB-231; assay type: cell-based, human; conditions: 60 min co-incubation with nonradioactive KISS1-54, 1,000-fold, not significant, p = 0.08
Description: as §7

MCF-7 cells = assay: In vitro cell uptake, MCF-7; assay type: cell-based, human; conditions: 60 min co-incubation with nonradioactive KISS1-54, 1,000-fold, p = 0.004
Description: as §7

HCT116 cells = assay: In vitro cell uptake, HCT116; assay type: cell-based, human
Description: as §7

in vivo = assay: in vivo; set-up: species or system CD1 nu/nu mice; conditions: mouse, iv; for tissue uptake at 1 h: CD1-Foxn1nu (CD1 nu/nu), total radioactivity
Description: as §1, §2, §3, §4, §5, §6

[3] = Stability in injection solution by radio-HPLC; assay type: physicochemical; conditions: 3 h after preparation (EOS), diluted in PBS, room temperature, C18
Description: The radiochemical purity of [^68Ga]KISS1-54 was determined via high-performance liquid chromatography (HPLC). A linear gradient started from 100% H2O (0.1% TFA) to 100% acetonitrile (0.1% TFA) over 10 min, with a flow rate of 0.7 mL/min, using a Nucleosil column (100-5 C18 125 × 4.6 mm) (CS-Chromatographie, Langerwehe, Germany) and HPLC system (Knauer, Berlin, Germany). For the determination of the in vitro stability, the [^68Ga]KISS1-54 solution was diluted in phosphate-buffered saline (PBS) and stored at room temperature, and the HPLC runs were repeated 1 h and 3 h after the end of synthesis.

HepG2 cells = assay: In vitro cell uptake, HepG2; assay type: cell-based, human; conditions: 60 min co-incubation with nonradioactive KISS1-54, 1,000-fold, p = 0.02
Description: as §7

[4] = molecular target: KISS1 receptor (KISS1R or GPR54); conditions: affinity for KISS1R; ref [1],[2]; cited from earlier work
Description: Kisspeptins (KPs) summarize the family of KISS1 peptides, which bind at the KISS1 receptor (KISS1R or GPR54) with high affinity. Among the KPs, KISS1-54 is the best characterized representative (Ki 1.45 ± 0.1 nM for KISS1-54). The Kiss1 gene was first identified as a metastasis suppressor gene in melanoma, which suppresses metastasis without affecting the formation of primary tumor [3]. Since then, Kisspeptin was also identified in pancreatic, lung, breast, ovarian, gastric, colon, bladder, esophageal, and small intestine cancer.

In the case of `Nc1ncn([C@H]2C[C@H](O)[C@@H](CO)O2)c(=O)n1` [Decitabine, 5-Aza-2′-Deoxycytidine], the “KISS1R level by immunofluorescence” value (KISS1R in HCT116 cells) is reported as “increase in the KISS1R level”.

For `O=C[C@H]([18F])[C@@H](O)[C@H](O)[C@H](O)CO` [[^18F]FDG, 2-[^18F]fluoro-2-deoxyglucose, reference compound], the “tumor uptake in control PET (tumor vitality)” value (LNCap tumor xenograft; LNCap tumor, scan the day before [^68Ga]KISS1-54) was “clear FDG uptake” and the “tumor uptake in control PET (tumor vitality)” value ([1]; MDA-MB-231 tumor, scan the day before [^68Ga]KISS1-54) was “clear FDG uptake”.

With `CC[C@H](C)[C@H](NC(=O)[C@H](CCC(N)=O)NC(=O)[C@H](CCCNC(=N)N)NC(=O)[C@H](CO)NC(=O)[C@H](Cc1c[nH]cn1)NC(=O)[C@@H]1CCCN1C(=O)[C@H](C)NC(=O)[C@H](CO)NC(=O)[C@H](CC(C)C)NC(=O)CNC(=O)[C@@H]1CCCN1C(=O)[C@H](CCC(N)=O)NC(=O)[C@H](CCC(N)=O)NC(=O)[C@H](CCCNC(=N)N)NC(=O)[C@H](CO)NC(=O)CNC(=O)[C@H](CO)NC(=O)[C@H](CO)NC(=O)[C@H](CCC(=O)O)NC(=O)[C@@H]1CCCN1C(=O)[C@@H]1CCCN1C(=O)[C@@H]1CCCN1C(=O)[C@H](CO)NC(=O)[C@H](CC(C)C)NC(=O)[C@H](CO)NC(=O)[C@@H](NC(=O)CNC(=O)CCC(C(=O)O)N1CCN(CC(=O)O)CCN(CC(=O)O)CC1)[C@@H](C)O)C(=O)N1CCC[C@H]1C(=O)N[C@@H](C)C(=O)N1CCC[C@H]1C(=O)N[C@@H](CCC(N)=O)C(=O)NCC(=O)N[C@@H](C)C(=O)N[C@H](C(=O)N[C@@H](CC(C)C)C(=O)N[C@H](C(=O)N[C@@H](CCC(N)=O)C(=O)N[C@@H](CCCNC(=N)N)C(=O)N[C@@H](CCC(=O)O)C(=O)N[C@@H](CCCCN)C(=O)N[C@@H](CC(=O)O)C(=O)N[C@@H](CC(C)C)C(=O)N1CCC[C@H]1C(=O)N[C@@H](CC(N)=O)C(=O)N[C@@H](Cc1ccc(O)cc1)C(=O)N[C@@H](CC(N)=O)C(=O)N[C@@H](Cc1c[nH]c2ccccc12)C(=O)N[C@@H](CC(N)=O)C(=O)N[C@@H](CO)C(=O)N[C@@H](Cc1ccccc1)C(=O)NCC(=O)N[C@@H](CC(C)C)C(=O)N[C@@H](CCCNC(=N)N)C(=O)N[C@@H](Cc1ccccc1)C(N)=O)C(C)C)C(C)C` (some centres unmarked) [[^68Ga]KISS1-54, metal not drawn] the “radiochemical purity after incubation in human serum, 1 h” value [2] was 98.0%, the “uptake with KISS1-54 co-incubation, relative to control without blocking” value (“uptake … relative to control without blocking” for short) (LNCap cells) was 50% and the “uptake … relative to control without blocking” value (SK-BR-3 cells) was 46%. For the same compound, the “uptake … relative to control without blocking” value (HeLa cells) was 40%, the “uptake … relative to control without blocking” value (MDA-MB-231 cells) was 65% and the “uptake … relative to control without blocking” value (MCF-7 cells) was 47%. For the same compound, the “increased uptake after Decitabine treatment, with KISS1-54 co-incubation” value (HCT116 cells; DC-treated HCT116, 60 min co-incubation with KISS1-54) was “could be blocked”, the “uptake in Decitabine-pre-incubated HCT116 versus untreated cells” value (HCT116 cells; HCT116, 72 h pre-incubation with 5 µM Decitabine) was “significantly increased” and the “uptake … relative to control without blocking” value (HCT116 cells; HCT116, 60 min co-incubation with nonradioactive KISS1-54, 1,000-fold, not significant, p = 0.07) was 76%. For the same compound, the tumor uptake (LNCap tumor xenograft; LNCap tumor, 60 min p.i., i.v., µ-PET, mean ± SD, n = 8) was 0.9 ± 0.3 % ID/g, the “tumor visualisation in PET” value (LNCap tumor xenograft; LNCap xenograft, n = 8, visual inspection) was “clearly delineated from the surrounding tissue” and the “reduction of tumor uptake by co-injection of KISS1-54” value (LNCap tumor xenograft; LNCap-bearing mice, nonradioactive KISS1-54 in 100-fold excess) was 26 ± 5%. The tumor-to-muscle ratio (LNCap tumor xenograft; LNCap, maximal tumor uptake/mean organ uptake, 60 min p.i.) was 2.0 ± 0.3, the tumor-to-muscle ratio ([1]; MDA-MB-231, maximal tumor uptake/mean organ uptake, 60 min p.i.) was 1.4 ± 0.4 and the tumor uptake ([1]; MDA-MB-231 tumor, 60 min p.i., i.v., µ-PET, mean ± SD, n = 10) was 0.7 ± 0.3 % ID/g. For the same compound, the “tumor visualisation in PET” value ([1]; MDA-MB-231 tumor, n = 10, visual inspection) was “no significant uptake”, the tissue uptake at 1 h (in vivo; tracer accumulation in brain) was ~0.2 %ID/g and the tissue uptake at 1 h (in vivo; tracer accumulation in liver) was ~0.8 %ID/g. For the same compound, the tissue uptake at 1 h (in vivo; tracer accumulation in muscle) was ~0.5 %ID/g, the clearance (in vivo) was “rapid renal tracer clearance during the first few minutes” and the “radiochemical purity in injection solution” value [3] was > 99%. The “uptake … relative to control without blocking” value (HepG2 cells) was 46%.

In the case of “KISS1-54: KISS1 peptide with 54 amino acids; nonradioactive blocking agent (GTSLSPPPESSGSPQQPGLSAPHSRQIPAPQGAVLVQREKDLPNYNWNSFGLRF; ends and bridges not checked; UniProt Q15726 68-121, looked up)”, the Ki [4] is given as 1.45 ± 0.1 nM.
